# Source: US5681964A, “Permeable, non-irritating prodrugs of nonsteroidal and steroidal agents” (University of Kentucky Research Foundation, priority 1994, dated 1997)
# Where two headings read alike, the source gives them in different places.
# Key:
# Solubility (Table 1) = format: physicochemical
# t1/2 in serum (Table 1) = format: in vitro ADME
# [1] = t1/2 in PB (7.4) (Table 1); format: physicochemical; details: for half-life: pH 7.4; for t1/2 in PB (7.4): result in words
# cornea = details: in vitro; cited from earlier work
# cornea epithelium = assay: differential scanning calorimetry of cornea epithelium of treated enucleated albino rabbit eyes
# Description: The reduced cornea damage by polyethylene glycol flurbiprofenate and bis-flurbiprofenate prodrugs in albino rabbit eyes was assessed by differential scanning calorimetry. Tests were conducted to investigate the effects of flurbiprofen and the polyethylene glycol flurbiprofen ester and the diester prodrugs on the cornea epithelium. […] The effects of these drugs on the molecular structure of the cornea epithelium were assessed by differential scanning calorimetry. Fresh enucleated albino rabbit eyes were treated in solutions and also in suspensions of flurbiprofen and also in solutions and suspensions of the polyethylene glycol esters and diesters of flurbiprofen in isotonic glutathione buffered ringer solution for 10 minutes. The cornea epithelium was then scraped from the corneas and immediately analyzed by differential scanning calorimetry over the range of 40°-110° C.
# Whenever a normal rabbit's cornea epithelium was analyzed a large endothermic transition at 64°±2° C. was observed. It has been established by previous work that this particular peak which was observed was due to a lipid.backslash.protein phase transition.
# [2] = man; cited from earlier work
# [3] = applied for treatment of inflammation; cited from earlier work
# [4] = animal and human experiments; cited from earlier work
# Salmonella = details: Ames type assays and chronic exposure studies; cited from earlier work
# skin = details: cited from earlier work
# rabbit eye = assay: irritancy in the rabbit eye, daily drops for seven days; format: in vivo; details: for degree of irritation to the cornea as compared to flurbiprofen in the acid form: 25 microliters (monoester, flurbiprofen) or 30 microliters (diester) into each eye daily, seven days, slit lamp, electron microscopy; for conversion into the flurbiprofen acid form during transport into the eye: aqueous humor and vitreous humor after seven days
# Description: Another experiment was performed with tetraethylene glycol flurbiprofenate and tetraethylene glycol bis-flurbiprofenate to determine the irritancy of these prodrugs in the rabbit eye.
# 25 microliters of tetraethylene flurbiprofenate were dropped into each eye of two rabbits each day for seven days. Also, 30 microliters of tetraethylene glycol bis-flurbiprofenate was dropped into each eye of two rabbits each day for 7 days. A control using 25 microliters of flurbiprofen was dropped into each eye of two rabbits for seven days. Each morning the rabbit's eyes were examined by slit lamp for evidence of cornea damage and irritation. After seven days the animals were sacrificed and samples of the aqueous humor and vitreous humor were obtained for analysis of flurbiprofen and a flurbiprofen ester. The eyes were also examined by electron microscopy. […] The test was repeated using 10 microliters of each of the substances each day for seven days with similar results.
# [5] = PB (7.4), read-out: t1/2 in PB (7.4) (converted)
Molecule,solubility (Solubility (Table 1); read-out: Solubility) [µg/mL],half-life (t1/2 in serum (Table 1); read-out: t1/2 in serum) [h],t1/2 in PB (7.4) ([1]; PB (7.4)),other results
COc1ccc2cc(C(C)C(=O)OCCOCCO)ccc2c1 (stereo not drawn) [Compound G-195.1],553 ± 27,0.967,–,"half-life [1, 5]: 80 h"
"CC(C(=O)O)c1ccc(-c2ccccc2)c(F)c1 (stereo not drawn) [flurbiprofen, 2(2-fluoro-4-biphenylyl)propionic acid]",–,–,–,cornea barrier function (cornea): impairs cornea barrier function in vitro; normal protein/lipid structure of cornea epithelium (cornea epithelium): substantially total breakdown of the normal protein/lipid structure; irritation [2]: irritating in man; local irritation [3]: produces local irritation
COc1ccc2cc(C(C)C(=O)OCCOCCOCCOCCOCCOCCO)ccc2c1 (stereo not drawn) [Compound G-220.1],6430 ± 617,0.0617,several days,–
COc1ccc2cc(C(C)C(=O)OCCOCCOCCO)ccc2c1 (stereo not drawn) [Compound G-192.1],943 ± 25,0.217,–,"half-life [1, 5]: 230 h"
"CC(C(=O)OCCOCCOCCOCCOCCOCCO)c1ccc(-c2ccccc2)c(F)c1 (stereo not drawn) [TC-242.2, hexaethylene glycol flurbiprofenate]",445 ± 34,0.367,several days,–
"CC1(C)O[C@@H]2C[C@H]3[C@@H]4CCC5=CC(=O)C=C[C@]5(C)[C@@]4(F)[C@@H](O)C[C@]3(C)[C@]2(C(=O)COC(=O)OCCOCCOCCOCCO)O1 [Compound G-196.1, carbonate linked ester of triamcinolone acetonide and tetraethylene glycol]",–,–,–,solubility (Solubility (Table 1)): 391 ± 49 µg/mL; half-life (t1/2 in serum (Table 1)): 3.8 h; half-life ([1]; pb): 136 h
"CC1(C)O[C@@H]2C[C@H]3[C@@H]4CCC5=CC(=O)C=C[C@]5(C)[C@@]4(F)[C@@H](O)C[C@]3(C)[C@]2(C(=O)COC(=O)OCCOCCO)O1 [Compound G-197.1, carbonate linked ester of triamcinolone acetonide and diethylene glycol]",–,–,–,solubility (Solubility (Table 1)): 74 ± 3 µg/mL; half-life (t1/2 in serum (Table 1)): 0.167 h; half-life ([1]; pb): 101 h
COc1ccc2cc(C(C)C(=O)OCCOCCOCCOC(=O)C(C)c3ccc4cc(OC)ccc4c3)ccc2c1 (stereo not drawn) [Compound G-192.2],< 0.1,0.833,low solubility,–
"CC(C(=O)OCCOCCOCCOCCOCCOCCOC(=O)C(C)c1ccc(-c2ccccc2)c(F)c1)c1ccc(-c2ccccc2)c(F)c1 (stereo not drawn) [TC-242.1, hexaethylene glycol bis-flurbiprofenate]",< 0.1,2.78,very slow,–
benzalkonium chloride,–,–,–,intensity of the phase transition peak of cornea epithelium by DSC (cornea epithelium; compounds known to damage the cornea): greatly reduce the intensity of this observed peak
"COc1ccc2cc(C(C)C(=O)OCCOCCOCCOCCO)ccc2c1 (stereo not drawn) [Compound G-167, monoester of naproxen and tetraethylene glycol]",1120 ± 31,0.0833,–,"half-life [1, 5]: 300 h"
"COc1ccc2cc(C(C)C(=O)OCCOCCOCCOCCOCCOCCOC(=O)C(C)c3ccc4cc(OC)ccc4c3)ccc2c1 (stereo not drawn) [Compound G-220.2, diester of naproxen and hexaethylene glycol]",< 0.1,0.833,very slow,–
CN1CCCC1=O [N-methyl-2-pyrrolidone],–,–,–,irritation or sensitization potential [4]: very little irritation or sensitization potential; toxicity (Salmonella): have not revealed any significant toxicity; penetration enhancement (skin): effective penetration enhancer
CC(C(=O)OCCOCCOCCO)c1ccc(-c2ccccc2)c(F)c1 (stereo not drawn) [Compound G-60],135 ± 4,0.75,–,"half-life [1, 5]: 175 h"
"CC(C(=O)OCCOCCOCCOCCO)c1ccc(-c2ccccc2)c(F)c1 (stereo not drawn) [Compound G-202.1, tetraethylene glycol 2-(2-fluoro-4-biphenylyl)propionate]",228 ± 5,0.533,–,"degree of irritation to the cornea as compared to flurbiprofen in the acid form (rabbit eye): significantly reduced; conversion into the flurbiprofen acid form during transport into the eye (rabbit eye): converted into the flurbiprofen acid form during transport into the eye; half-life [1, 5]: 144 h"
"COc1ccc2cc(C(C)C(=O)OCCOCCOCCOCCOC(=O)C(C)c3ccc4cc(OC)ccc4c3)ccc2c1 (stereo not drawn) [Compound G-219.2, diester of naproxen and tetraethylene glycol]",< 0.1,0.433,very slow,–
"CC(C(=O)OCCOCCOCCOCCOC(=O)C(C)c1ccc(-c2ccccc2)c(F)c1)c1ccc(-c2ccccc2)c(F)c1 (stereo not drawn) [Compound G-202.2, tetraethylene glycol bis-2-(2-fluoro-4-biphenylyl)propionate]",< 0.1,3.67,low solubility,degree of irritation to the cornea as compared to flurbiprofen in the acid form (rabbit eye): significantly reduced; conversion into the flurbiprofen acid form during transport into the eye (rabbit eye): converted into the flurbiprofen acid form during transport into the eye
"COc1ccc2cc(C(C)C(=O)OCCOCCOC(=O)C(C)c3ccc4cc(OC)ccc4c3)ccc2c1 (stereo not drawn) [Compound G-195.2, diester of naproxen and diethylene glycol]",< 0.1,1.25,low solubility,–
